Test results published in ChEMBL document CHEMBL1201862, “PubChem BioAssay data set” (2004).
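Assay format: 96-well plates, 48-hour exposure. GI50: concentration for 50% inhibition of growth.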 The source made the active and inactive calls. Rule as the data show it: active = GI50 up to about 1.1 µM and inactive = higher.

Columns and labels:
Assay in all cases: growth of human tumour cells (NCI), 48 h
RXF 393 = test system: RXF 393
COLO 205 = test system: COLO 205
SR = test system: SR
SK-MEL-28 = test system: SK-MEL-28
A498 = test system: A498
RPMI-8226 = test system: RPMI-8226
SF-539 = test system: SF-539
NCI-H226 = test system: NCI-H226
OVCAR-5 = test system: OVCAR-5
NCI-H460 = test system: NCI-H460
HOP-62 = test system: HOP-62
CAKI-1 = test system: CAKI-1
HCT-116 = test system: HCT-116
UACC-62 = test system: UACC-62
SK-MEL-5 = test system: SK-MEL-5
SK-OV-3 = test system: SK-OV-3
MOLT-4 = test system: MOLT-4
DU-145 = test system: DU-145
ACHN = test system: ACHN
OVCAR-8 = test system: OVCAR-8
OVCAR-3 = test system: OVCAR-3
T47D = test system: T47D
NCI/ADR-RES = test system: NCI/ADR-RES
K562 = test system: K562
HCC 2998 = test system: HCC 2998
TK-10 = test system: TK-10
SNB-75 = test system: SNB-75
HL-60 = test system: HL-60
786-0 = test system: 786-0
SF-295 = test system: SF-295
MDA-N = test system: MDA-N
NCI-H23 = test system: NCI-H23
LOX IMVI = test system: LOX IMVI
Hs-578T = test system: Hs-578T
SN12C = test system: SN12C
UACC-257 = test system: UACC-257
EKVX = test system: EKVX
OVCAR-4 = test system: OVCAR-4
NCI-H522 = test system: NCI-H522
HOP-92 = test system: HOP-92
IGROV-1 = test system: IGROV-1
SW-620 = test system: SW-620
U-251 = test system: U-251
UO-31 = test system: UO-31
CCRF-CEM = test system: CCRF-CEM
MDA-MB-231 = test system: MDA-MB-231
MDA-MB-435 = test system: MDA-MB-435
MCF7 = test system: MCF7
A549 = test system: A549
M14 = test system: M14
HT-29 = test system: HT-29
SF-268 = test system: SF-268
KM12 = test system: KM12

Measured: GI50

O=C(CC(C(=O)c1ccco1)c1ccco1)c1ccco1 (stereo not drawn)
inactive: RXF 393 > 100 µM | COLO 205 > 100 µM | SR > 100 µM | SK-MEL-28 > 100 µM | A498 > 100 µM | RPMI-8226 > 100 µM | SF-539 > 100 µM | NCI-H226 > 100 µM | OVCAR-5 > 100 µM | NCI-H460 > 100 µM | HOP-62 > 100 µM | CAKI-1 > 100 µM | HCT-116 > 100 µM | UACC-62 > 100 µM | SK-MEL-5 > 100 µM | SK-OV-3 > 100 µM | MOLT-4 > 100 µM | DU-145 > 100 µM | ACHN > 100 µM | OVCAR-8 > 100 µM | OVCAR-3 > 100 µM | T47D > 100 µM | NCI/ADR-RES > 100 µM | K562 > 100 µM | HCC 2998 > 100 µM | TK-10 > 100 µM | SNB-75 > 100 µM | HL-60 > 100 µM | 786-0 > 100 µM | SF-295 > 100 µM | MDA-N > 100 µM | NCI-H23 > 100 µM | LOX IMVI > 100 µM | Hs-578T > 100 µM | SN12C > 100 µM | UACC-257 > 100 µM | EKVX > 100 µM | OVCAR-4 23.8 µM | NCI-H522 > 100 µM | HOP-92 > 100 µM | IGROV-1 > 100 µM | SW-620 > 100 µM | U-251 > 100 µM | UO-31 33.1 µM | CCRF-CEM 71.1 µM | MDA-MB-231 78.9 µM | MDA-MB-435 > 100 µM | MCF7 > 100 µM | A549 > 100 µM | M14 > 100 µM | HT-29 > 100 µM | SF-268 > 100 µM | KM12 > 100 µM
